Data published in BindingDB's records for doi:10.1073/pnas.0511292103 (Genomics Institute of The Novartis Research Foundation, 2006).

Molecular target: T1, Ret proto-oncogene (Homo sapiens, UniProt Q9UE13)
T1 sequence (Q9UE13 whole entry): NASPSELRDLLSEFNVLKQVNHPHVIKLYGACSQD

Ki [µM] | SMILES
> 10 | Cc1ccc(NC(=O)c2ccc(CN3CCN(C)CC3)cc2)cc1Nc1nccc(-c2cccnc2)n1
8.68 | Cc1cn(-c2cc(NC(=O)c3ccc(C)c(Nc4nccc(-c5cccnc5)n4)c3)cc(C(F)(F)F)c2)cn1 [AMN 107]
